The target in test [1] is T1, full-length recombinant human NEK7 (Homo sapiens, UniProt Q8TDX7).
T1 construct: full-length recombinant human NEK7; GST (N); purchased SignalChem NO9-10G; host or cells: Sf9 insect cells (baculovirus)
Kind of test: NEK7 enzymatic assay. Format: biochemical. Particulars: recombinant human NEK7, casein substrate, radiolabelled ATP. As for the experimental part:
Casein substrate (from bovine milk, hydrolyzed and partially dephosphorylated mixture of α, β and κ caseins, obtained from Sigma Aldrich, catalogue #C4765, diluted in distilled water to a final concentration of 1 mg/mL) and full-length recombinant human NEK7 (expressed by baculovirus in Sf9 insect cells using a N-terminal GST tag, obtained from SignalChem, catalogue #NO9-10G, 0.1 μg/μL) were mixed in assay buffer (20 mM Hepes pH 7.5, 10 mM MgCl2, 1 mM EGTA, 0.02% Brij35, 0.02 mg/ml BSA, 0.1 mM Na3VO4, 2 mM DTT, 1% DMSO). Compounds of interest (serial 3-fold dilution in DMSO from 10 μM to 0.5 nM) or vehicle (1% DMSO) were dispensed into the kinase reaction mixture by Acoustic technology (Echo550; nanoliter range). After incubation at room temperature for 20 minutes, the kinase reaction was initiated by addition of [^33P]-ATP (specific activity 10 μCi/μl) and the mixture was incubated at room temperature for 2 hours. The reaction was then stopped by spotting the reaction mixture on strips of phosphocellulose P81 paper. Following washing, the radioactivity of the P81 paper was measured and kinase activity data were expressed as the percent remaining kinase activity in test samples compared to vehicle reactions. IC50 values and curve fits were obtained using Prism (GraphPad Software).
Casein substrate (from bovine milk, hydrolyzed and partially dephosphorylated mixture of α, β and κ caseins, obtained from Sigma Aldrich, catalogue #C4765, diluted in distilled water to a final concentration of 1 mg/mL, assay concentration 20 μM) and full-length recombinant human Nek7 (expressed by baculovirus in Sf9 insect cells using a N-terminal GST tag, obtained from SignalChem, catalogue #NO9-10G, 0.1 μg/μL, assay concentration 70 nM) were mixed in assay buffer (20 mM Hepes pH 7.5, 10 mM MgCl2, 1 mM EGTA, 0.02% Brij35, 0.02 mg/ml BSA, 0.1 mM […], 2 mM DTT, 1% DMSO). Compounds of interest (in DMSO, serial 3-fold dilution from 10 μM to 0.5 nM) or control (1% DMSO) were dispensed into the kinase reaction mixture by Acoustic technology (Echo550; nanoliter range). After incubation at room temperature for 20 minutes, the kinase reaction was initiated by addition of [^32P]-ATP (Specific activity 10 μCi/μl) and the mixture was incubated at room temperature for 2 hours. The reaction was then stopped by spotting the reaction mixture on strips of phosphocellulose P81 paper. Following washing, the radioactivity of the P81 paper was measured and kinase activity data were expressed as the percent remaining kinase activity in test samples compared to vehicle (dimethyl sulfoxide) reactions. IC50 values and curve fits were obtained using Prism (GraphPad Software).

For the next test, the system named is IL-1β release. As to the kind of experiment: IL-1β release assay (THP-1 cells, PMA, LPS, nigericin). The class given is cell-based. Conditions: Homo sapiens, LPS 250 ng/mL, nigericin 20 μM, cleaved IL-1β in media. As to the method:
Approximately 1.5 million THP-1 cells were plated in each well of a 6-well TC plate and incubated with 40 nM PMA in RPMI (10% FBS, 1% Penstrep) for 24 hours. The media was then removed and cells were rested in RPMI (10% FBS, 1% Penstrep) for 24 hours after which time the media was removed and cells were pre-treated for 2 hours with various concentrations of compounds of interest (typically serial 3-fold dilution in RPMI+5% FBS, concentrations ranging from 1 μM to 0.5 nM) in RPMI (5% FBS). The media was again removed and cells were incubated with 250 ng/mL LPS and compounds of interest (concentrations as above) in RMPI (5% FBS) for 2 hours. The media was removed for a last time and cells were incubated with 20 μM nigericin and compounds of interest (concentrations as above) in Opti-MEM for 30 minutes. Cell media was then collected and the amount of cleaved IL-1β was determined using a JESS instrument (Protein Simple) and standard protocols. Cleaved Il-1β antibody was obtained from Cell Signaling (catalogue #83186S) and was used at 1:20 dilution in antibody diluent 2. Protein Simple 1× anti-Rabbit HRP secondary antibody was used along with Protein Simple luminol and peroxide for chemiluminescent detection. Primary antibody incubation time was increased from 30 minutes to 60 minutes.

Where only a bound is given, the exact number is not on record here.

T1 sequence (Q8TDX7 whole entry): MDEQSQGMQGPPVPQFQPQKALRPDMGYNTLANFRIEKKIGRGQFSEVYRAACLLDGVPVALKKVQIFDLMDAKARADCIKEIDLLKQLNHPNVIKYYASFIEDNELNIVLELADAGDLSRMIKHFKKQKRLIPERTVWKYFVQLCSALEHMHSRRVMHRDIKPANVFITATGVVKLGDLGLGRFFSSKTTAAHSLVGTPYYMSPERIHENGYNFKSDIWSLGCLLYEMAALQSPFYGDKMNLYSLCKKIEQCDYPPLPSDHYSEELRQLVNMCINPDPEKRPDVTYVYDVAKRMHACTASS

As for `CN1CCC(Oc2ccc(NC(=O)Nc3ccc(-c4cn(C5CC5)c5ncnc(N)c45)cc3F)cc2C(F)(F)F)C(F)C1` (single isomer, unassigned) [Example I-90, 1-(4-(4-amino-7-cyclopropyl-7H-pyrrolo[2,3-d]pyrimidin-5-yl)-2-fluorophenyl)-3-(4-((3-fluoro-1-methylpiperidin-4-yl)oxy)-3-(trifluoromethyl)phenyl)urea], the values for the IC50 (in test [1]; in the test on IL-1β release) were under 0.1 µM and under 0.05 µM, respectively.

`CN1CCN(c2ccc(NC(=O)Nc3ccc(-c4cn(C5CC5)c5ncnc(N)c45)cc3F)cc2C(F)(F)F)CC1` [Example I-3]: the IC50 with IL-1β release fell in the range of 0.25 to 1 µM.

Consider `CC(c1ccc(NC(=O)Nc2ccc(-c3cn(C4CC4)c4ncnc(N)c34)cc2F)cc1C(F)(F)F)N1CCN(C)CC1` (centres unmarked) [Example I-6, 1-(4-(4-amino-7-cyclopropyl-7H-pyrrolo[2,3-d]pyrimidin-5-yl)-2-fluorophenyl)-3-(4-(1-(4-methylpiperazin-1-yl)ethyl)-3-(trifluoromethyl)phenyl)urea], for which the half-maximal inhibitory concentration (IC50) in test [1] was over 2 µM; with IL-1β release, over 1 µM.

As for `CN1CCN(C(=O)c2ccc(NC(=O)Nc3ccc(-c4cn(C5CC5)c5ncnc(N)c45)cc3F)cc2C(F)(F)F)CC1` [Example I-10], the IC50 lay within 0.1 to 0.5 µM in test [1] and 0.05 to 0.25 µM in the test with IL-1β release.

Regarding `CN1CCN(Cc2ccc(NC(=O)Nc3ccc(-c4cn(CC(C)(C)O)c5ncnc(N)c45)cc3F)cc2C(F)(F)F)CC1` [Example I-15, 1-(4-(4-amino-7-(2-hydroxy-2-methylpropyl)-7H-pyrrolo[2,3-d]pyrimidin-5-yl)-2-fluorophenyl)-3-(4-((4-methylpiperazin-1-yl)methyl)-3-(trifluoromethyl)phenyl)urea], the half-inhibitory concentration (IC50) is under 0.1 µM in test [1] and under 0.05 µM in the test with IL-1β release.

For `CN1CCN(Cc2ccc(NC(=O)Nc3ccc(-c4cn(C5CC5)c5ncnc(N)c45)cc3F)c(C(F)(F)F)c2)CC1` [Example I-16, 1-(4-(4-amino-7-cyclopropyl-7H-pyrrolo[2,3-d]pyrimidin-5-yl)-2-fluorophenyl)-3-(4-((4-methylpiperazin-1-yl)methyl)-2-(trifluoromethyl)phenyl)urea], the IC50 was over 2 µM in test [1] and over 1 µM in the test with IL-1β release.

Consider `CN1CCN(Cc2ccc(NC(=O)Nc3ccc(-c4cn(C)c5ncnc(N)c45)cc3F)cc2C(F)(F)F)CC1` [Example I-18, 1-(4-(4-amino-7-methyl-7H-pyrrolo[2,3-d]pyrimidin-5-yl)-2-fluorophenyl)-3-(4-((4-methylpiperazin-1-yl)methyl)-3-(trifluoromethyl)phenyl)urea], for which the IC50 in test [1] is under 0.1 µM; in the test on IL-1β release, under 0.05 µM.

For `CN1CCN(Cc2ccc(NC(=O)Nc3ccc(-c4cn(C5CCN(C)C5)c5ncnc(N)c45)cc3F)cc2C(F)(F)F)CC1` (centres unmarked) [Example I-20, 1-(4-(4-amino-7-(1-methylpyrrolidin-3-yl)-7H-pyrrolo[2,3-d]pyrimidin-5-yl)-2-fluorophenyl)-3-(4-((4-methylpiperazin-1-yl)methyl)-3-(trifluoromethyl)phenyl)urea], the IC50 in test [1] was under 0.1 µM; in the test with IL-1β release, under 0.05 µM.

`CN1CCC(n2cc(-c3ccc(NC(=O)Nc4ccc(CN5CCN(C)CC5)c(C(F)(F)F)c4)c(F)c3)c3c(N)ncnc32)CC1` [Example I-21, 1-(4-(4-amino-7-(1-methylpiperidin-4-yl)-7H-pyrrolo[2,3-d]pyrimidin-5-yl)-2-fluorophenyl)-3-(4-((4-methylpiperazin-1-yl)methyl)-3-(trifluoromethyl)phenyl)urea]: the IC50 in test [1] was under 0.1 µM; with IL-1β release, over 1 µM.

Turning to `CC(C)n1nc(-c2ccc(NC(=O)Nc3ccc(CN4CCN(C)CC4)c(C(F)(F)F)c3)cc2)c2c(N)ncnc21` [Example I-24, 1-(4-(4-amino-1-isopropyl-1H-pyrazolo[3,4-d]pyrimidin-3-yl)phenyl)-3-(4-((4-methylpiperazin-1-yl)methyl)-3-(trifluoromethyl)phenyl)urea], the results for the IC50 (in test [1]; in the test with IL-1β release) were under 0.1 µM and under 0.05 µM, respectively.

Regarding `CN1CCN(Cc2ccc(NC(=O)Nc3ccc(-c4nn(C5CC5)c5ncnc(N)c45)cc3F)cc2C(F)(F)F)CC1` [Example I-28, 1-(4-(4-amino-1-cyclopropyl-1H-pyrazolo[3,4-d]pyrimidin-3-yl)-2-fluorophenyl)-3-(4-((4-methylpiperazin-1-yl)methyl)-3-(trifluoromethyl)phenyl)urea], the half-maximal inhibitory concentration (IC50) in test [1] is under 0.1 µM; in the test with IL-1β release, under 0.05 µM.

As to `CN1CCN(Cc2ccc(NC(=O)Nc3ccc(-c4nn(CC(C)(C)O)c5ncnc(N)c45)cc3F)cc2C(F)(F)F)CC1` [Example I-29, 1-(4-(4-amino-1-(2-hydroxy-2-methylpropyl)-1H-pyrazolo[3,4-d]pyrimidin-3-yl)-2-fluorophenyl)-3-(4-((4-methylpiperazin-1-yl)methyl)-3-(trifluoromethyl)phenyl)urea], the values for the 50% inhibitory concentration (IC50) (in test [1]; with IL-1β release) were under 0.1 µM and under 0.05 µM, respectively.

For the compound `CN1CCN(Cc2ccc(NC(=O)Nc3ccc(-c4nn(C5CC5)c5ccnc(N)c45)cc3F)cc2C(F)(F)F)CC1` [Example I-31, 1-(4-(4-amino-1-cyclopropyl-1H-pyrazolo[4,3-c]pyridin-3-yl)-2-fluorophenyl)-3-(4-((4-methylpiperazin-1-yl)methyl)-3-(trifluoromethyl)phenyl)urea], the IC50 in test [1] was under 0.1 µM; in the test with IL-1β release, under 0.05 µM.

Compound `Nc1ncnc2c1c(-c1ccc(NC(=O)Nc3ccc(CN4CCOCC4)c(C(F)(F)F)c3)c(F)c1)cn2C1CC1` [Example I-32, 1-(4-(4-amino-7-cyclopropyl-7H-pyrrolo[2,3-d]pyrimidin-5-yl)-2-fluorophenyl)-3-(4-(morpholinomethyl)-3-(trifluoromethyl)phenyl)urea] yielded an IC50 with IL-1β release of 0.25 to 1 µM.

Regarding `CN1CCN(Cc2ccc(NC(=O)Nc3ccc(-c4cn(C5CC5)c5ncnc(N)c45)cc3F)cc2C(F)(F)F)CC1` [Example I-34, 1-(4-(4-amino-7-cyclopropyl-7H-pyrrolo[2,3-d]pyrimidin-5-yl)-2-fluorophenyl)-3-(4-((4-methylpiperazin-1-yl)methyl)-3-(trifluoromethyl)phenyl)urea], the IC50 in test [1] is under 0.1 µM; with IL-1β release, under 0.05 µM.

In the case of `CN1CCN(Cc2ccc(NC(=O)Nc3ccc(-c4cn(C5CC5)c5ncnc(N)c45)cc3F)cc2C2CC2)CC1` [Example I-40, 1-(4-(4-amino-7-cyclopropyl-7H-pyrrolo[2,3-d]pyrimidin-5-yl)-2-fluorophenyl)-3-(3-cyclopropyl-4-((4-methylpiperazin-1-yl)methyl)phenyl)urea], the 50% inhibitory concentration (IC50) lay within 0.1 to 0.5 µM in test [1] and 0.25 to 1 µM in the test with IL-1β release.

`CN1CCN(Cc2ccc(NC(=O)Nc3ccc(-c4nn(C5CC5)c5ccnc(N)c45)cn3)cc2C(F)(F)F)CC1` [Example I-51, 1-(5-(4-amino-1-cyclopropyl-1H-pyrazolo[4,3-c]pyridin-3-yl)pyridin-2-yl)-3-(4-((4-methylpiperazin-1-yl)methyl)-3-(trifluoromethyl)phenyl)urea] returned a 50% inhibitory concentration (IC50) in the test on IL-1β release of 0.05 to 0.25 µM.

Compound `CN1CCC(Oc2ncc(NC(=O)Nc3ccc(-c4cn(C5CC5)c5ncnc(N)c45)cc3F)cc2C(F)(F)F)CC1` [Example I-61, 1-(4-(4-amino-7-cyclopropyl-7H-pyrrolo[2,3-d]pyrimidin-5-yl)-2-fluorophenyl)-3-(6-((1-methylpiperidin-4-yl)oxy)-5-(trifluoromethyl)pyridin-3-yl)urea] gave an IC50 in the test on IL-1β release of over 1 µM.

For orientation: IC50 means the concentration that inhibits the measured activity by half.

The values above are taken from US20240317758A1 (Halia Therapeutics, Inc., priority 2021, published 2024).
